Test results as given in ChEMBL document CHEMBL5291721, “A preclinical secondary pharmacology resource illuminates target-adverse drug reaction associations of marketed drugs” (Nat Commun, 2023).

Experiments:
[1] = molecular target: T1, Adenosine receptor A1 (Homo sapiens, UniProt P30542)
T1 sequence (P30542 whole entry): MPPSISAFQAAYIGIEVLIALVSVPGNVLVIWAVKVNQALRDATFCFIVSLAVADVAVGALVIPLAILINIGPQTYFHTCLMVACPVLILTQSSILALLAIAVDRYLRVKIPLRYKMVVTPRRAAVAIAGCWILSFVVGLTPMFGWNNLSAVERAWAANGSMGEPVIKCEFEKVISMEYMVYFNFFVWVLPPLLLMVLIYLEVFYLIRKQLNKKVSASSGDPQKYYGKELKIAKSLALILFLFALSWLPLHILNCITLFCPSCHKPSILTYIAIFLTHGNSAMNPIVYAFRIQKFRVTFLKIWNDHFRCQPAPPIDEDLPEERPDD

[2] = molecular target: T2, 5-hydroxytryptamine receptor 1A (Homo sapiens, UniProt P08908); type: functional, cell-based
T2 sequence (P08908 whole entry): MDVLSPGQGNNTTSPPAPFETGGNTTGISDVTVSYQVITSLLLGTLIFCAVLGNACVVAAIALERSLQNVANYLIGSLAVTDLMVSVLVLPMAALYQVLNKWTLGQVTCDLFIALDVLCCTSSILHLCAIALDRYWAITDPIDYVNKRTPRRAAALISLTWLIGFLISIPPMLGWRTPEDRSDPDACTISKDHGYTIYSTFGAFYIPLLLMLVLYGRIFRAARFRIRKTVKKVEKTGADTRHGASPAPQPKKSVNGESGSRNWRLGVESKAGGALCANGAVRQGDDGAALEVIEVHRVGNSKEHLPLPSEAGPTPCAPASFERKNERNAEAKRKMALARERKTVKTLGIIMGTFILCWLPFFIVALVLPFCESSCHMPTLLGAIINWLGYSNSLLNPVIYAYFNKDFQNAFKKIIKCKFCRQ

[3] = molecular target: T3, Type-1 angiotensin II receptor (Homo sapiens, UniProt P30556)
T3 sequence (P30556 whole entry): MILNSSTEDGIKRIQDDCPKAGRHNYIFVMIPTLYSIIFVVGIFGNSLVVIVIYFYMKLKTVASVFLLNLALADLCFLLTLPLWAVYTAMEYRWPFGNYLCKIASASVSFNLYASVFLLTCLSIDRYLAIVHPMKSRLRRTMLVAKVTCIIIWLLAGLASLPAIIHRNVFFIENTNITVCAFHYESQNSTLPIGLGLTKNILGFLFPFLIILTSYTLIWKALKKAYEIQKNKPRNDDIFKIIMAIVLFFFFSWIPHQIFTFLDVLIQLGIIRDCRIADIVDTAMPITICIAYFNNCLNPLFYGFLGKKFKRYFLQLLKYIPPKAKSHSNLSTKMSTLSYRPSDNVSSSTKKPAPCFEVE

[4] = molecular target: T4, Alpha-2A adrenergic receptor (Homo sapiens, UniProt P08913); type: functional, cell-based
T4 sequence (P08913 whole entry): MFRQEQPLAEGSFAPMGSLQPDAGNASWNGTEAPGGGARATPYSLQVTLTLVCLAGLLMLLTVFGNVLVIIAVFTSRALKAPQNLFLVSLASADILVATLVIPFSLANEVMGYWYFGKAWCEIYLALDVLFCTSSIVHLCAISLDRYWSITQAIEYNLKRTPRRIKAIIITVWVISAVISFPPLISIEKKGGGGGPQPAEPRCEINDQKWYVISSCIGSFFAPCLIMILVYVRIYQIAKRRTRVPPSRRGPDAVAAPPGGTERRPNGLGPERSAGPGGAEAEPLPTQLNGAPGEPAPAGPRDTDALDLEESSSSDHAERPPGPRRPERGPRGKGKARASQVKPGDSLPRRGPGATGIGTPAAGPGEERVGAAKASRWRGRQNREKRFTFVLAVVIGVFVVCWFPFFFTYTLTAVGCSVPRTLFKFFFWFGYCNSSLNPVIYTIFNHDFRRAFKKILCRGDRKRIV

[5] = molecular target: Adenosine receptor A2a (Homo sapiens, UniProt P29274)
Sequence of Adenosine receptor A2a (P29274 whole entry): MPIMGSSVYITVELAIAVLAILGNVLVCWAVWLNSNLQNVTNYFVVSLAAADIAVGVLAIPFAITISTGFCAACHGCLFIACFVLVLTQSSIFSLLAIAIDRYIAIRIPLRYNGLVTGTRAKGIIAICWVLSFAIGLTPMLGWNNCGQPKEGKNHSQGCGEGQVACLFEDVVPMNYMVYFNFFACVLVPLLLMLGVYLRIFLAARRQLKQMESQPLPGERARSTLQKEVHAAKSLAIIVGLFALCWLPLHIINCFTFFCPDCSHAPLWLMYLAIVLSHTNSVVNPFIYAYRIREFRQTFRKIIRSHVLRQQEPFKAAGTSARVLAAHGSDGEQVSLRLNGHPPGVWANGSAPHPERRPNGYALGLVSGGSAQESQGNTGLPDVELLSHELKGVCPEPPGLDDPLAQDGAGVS

[6] = molecular target: T5, Amine oxidase [flavin-containing] A (Homo sapiens, UniProt P21397); type: functional
T5 sequence (P21397 whole entry): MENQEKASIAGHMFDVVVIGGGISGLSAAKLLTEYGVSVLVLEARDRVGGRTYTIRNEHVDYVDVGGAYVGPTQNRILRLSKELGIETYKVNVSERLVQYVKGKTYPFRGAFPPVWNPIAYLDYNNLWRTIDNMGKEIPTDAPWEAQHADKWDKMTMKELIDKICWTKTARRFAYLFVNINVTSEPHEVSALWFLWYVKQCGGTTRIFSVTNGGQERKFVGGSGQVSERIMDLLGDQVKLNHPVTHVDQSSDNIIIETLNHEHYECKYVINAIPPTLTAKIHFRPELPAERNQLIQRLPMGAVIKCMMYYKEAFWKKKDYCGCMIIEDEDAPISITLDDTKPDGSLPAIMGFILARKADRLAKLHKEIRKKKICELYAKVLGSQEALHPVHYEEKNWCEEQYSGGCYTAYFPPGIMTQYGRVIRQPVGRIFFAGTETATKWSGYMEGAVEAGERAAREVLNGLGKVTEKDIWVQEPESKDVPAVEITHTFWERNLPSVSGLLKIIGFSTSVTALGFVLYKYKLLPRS

[7] = molecular target: T6, Prostaglandin G/H synthase 1 (Rattus norvegicus, UniProt Q63921); type: functional
T6 sequence (Q63921 whole entry): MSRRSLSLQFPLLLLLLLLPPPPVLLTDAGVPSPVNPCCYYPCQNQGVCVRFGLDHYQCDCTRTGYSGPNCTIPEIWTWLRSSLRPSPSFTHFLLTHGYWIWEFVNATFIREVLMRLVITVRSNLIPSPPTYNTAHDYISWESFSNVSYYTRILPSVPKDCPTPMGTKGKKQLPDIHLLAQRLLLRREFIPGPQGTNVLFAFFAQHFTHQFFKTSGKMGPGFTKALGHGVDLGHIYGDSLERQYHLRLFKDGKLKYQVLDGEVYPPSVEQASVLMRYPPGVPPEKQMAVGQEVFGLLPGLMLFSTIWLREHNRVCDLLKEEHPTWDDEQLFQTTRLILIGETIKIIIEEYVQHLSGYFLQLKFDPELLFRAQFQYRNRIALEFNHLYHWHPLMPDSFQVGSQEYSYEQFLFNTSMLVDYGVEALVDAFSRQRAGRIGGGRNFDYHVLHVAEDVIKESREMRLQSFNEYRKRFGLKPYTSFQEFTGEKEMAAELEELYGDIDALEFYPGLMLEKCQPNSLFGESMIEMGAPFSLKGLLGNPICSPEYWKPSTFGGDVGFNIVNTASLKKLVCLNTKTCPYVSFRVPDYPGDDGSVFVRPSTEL

[8] = molecular target: T4, Alpha-2A adrenergic receptor; type: functional, cell-based; remark: listed apart in the source
Further: assay procedure not described here.

SMILES	AC50 [1] [µM]	AC50 [2] [µM]	AC50 [3] [µM]	AC50 [4] [µM]	AC50 [5] [µM]	AC50 [6] [µM]	AC50 [7] [µM]	AC50 [8] [µM]
CC[C@H]1OC(=O)[C@H](C)[C@@H](O[C@H]2C[C@@](C)(OC)[C@@H](O)[C@H](C)O2)[C@H](C)[C@@H](O[C@@H]2O[C@H](C)C[C@H](N(C)C)[C@H]2O)[C@](C)(O)C[C@@H](C)CN(C)[C@H](C)[C@@H](O)[C@]1(C)O [AZITHROMYCIN]	> 30	> 10	> 30	> 10	> 30	> 10	> 30	> 10
NS(=O)(=O)Cc1noc2ccccc12 [ZONISAMIDE]	> 10	> 10	> 10	> 10	> 10	> 10	> 10	> 10
CNC1Cc2ccccc2N(C)c2ccccc21 (stereo unspecified) [METAPRAMINE]	> 30	> 10	> 30	> 30	> 30	> 30	> 30	3.2
O=P1(NCCCl)OCCCN1CCCl (stereo unspecified) [IFOSFAMIDE]	> 30	> 30	> 30	> 30	> 30	> 30	> 30	> 30
COc1cc2nc(N(C)CCCNC(=O)C3CCCO3)nc(N)c2cc1OC (stereo unspecified) [ALFUZOSIN]	> 30	> 30	> 30	> 30	> 30	> 30	> 30	6.8
CO[C@H]1C[C@@H]2CC[C@@H](C)[C@@](O)(O2)C(=O)C(=O)N2CCCC[C@H]2C(=O)O[C@H]([C@H](C)C[C@@H]2CC[C@@H](O)[C@H](OC)C2)CC(=O)[C@H](C)/C=C(\C)[C@@H](O)[C@@H](OC)C(=O)[C@H](C)C[C@H](C)/C=C/C=C/C=C/1C [SIROLIMUS]	> 30	> 10	> 30	> 10	> 30	5.6	> 30	> 10
CN(C)CCC(c1ccc(Cl)cc1)c1ccccn1 (stereo unspecified) [CHLORPHENIRAMINE]	> 30	> 10	> 30	> 10	> 30	> 10	> 30	> 10

Next, values leading:

AC50 [1] [µM]	AC50 [2] [µM]	AC50 [3] [µM]	AC50 [4] [µM]	AC50 [5] [µM]	AC50 [6] [µM]	AC50 [7] [µM]	AC50 [8] [µM]	SMILES
> 30	> 30	> 30	> 30	> 30	> 30	> 30	> 30	CNC(=O)c1ccccc1Sc1ccc2c(/C=C/c3ccccn3)n[nH]c2c1 [AXITINIB]
> 30	> 30	> 30	> 30	> 30	> 30	> 30	> 30	CCCCN1C[C@H](O)[C@@H](O)[C@H](O)[C@H]1CO
> 30	> 30	> 30	> 30	> 30	> 30	> 30	> 30	Nc1nc(NC2CC2)c2ncn([C@H]3C=C[C@@H](CO)C3)c2n1 [ABACAVIR]
> 30	> 10	> 30	> 10	> 30	> 10	22	> 10	CN1C(C(=O)Nc2ccccn2)=C(O)c2sc(Cl)cc2S1(=O)=O [LORNOXICAM]
> 30	> 30	> 30	> 30	> 30	> 30	> 30	> 30	CCC(C)n1ncn(-c2ccc(N3CCN(c4ccc(OCC5COC(Cn6cncn6)(c6ccc(Cl)cc6Cl)O5)cc4)CC3)cc2)c1=O (stereo unspecified) [ITRACONAZOLE]
